Source: patent US7601850B2, “Phenyl-thiophene type vitamin D receptor modulators” (Eli Lilly and Company, priority 2002, dated 2009)
pEC50, pIC50: −log10 of the molar value. Read-outs that look alike come from different tables or passages of the source.

What was measured:
KERtr cells = experiment: Keratinocyte proliferation assay (BrdU incorporation); type: cell-based; conditions: Homo sapiens, Keratinocyte, 72 h, KERtr human skin keratinocytes, 72 hr treatment, read-out: Kera. Prolif. IC50
Method: 6. The keratinocyte proliferation assay is described in the “Assay” section of the Description, infra.
5. The Keratinocyte Proliferation Assay
This Assay is indicative for the treatment of psoriasis.
(5) The Keratinocyte Proliferation Assay:
KERtr cells (Human skin keratinocyte transformed with a retrovirus vector, obtained from ATCC) were plated in 96-well flat-bottomed plates (3000 cells/well) in 100 µl keratinocyte serum free medium supplemented with bovine pituitary extract in the absence of EGF (Life Technologies, Rockville, Md.) and incubated at 37° C. for two days. The cells were treated with various concentrations of VDR ligands (ten-fold serial dilution from 10,000 nM to 0.1 nM in triplicate), dissolved in 100 µl keratinocyte serum free medium supplemented with bovine pituitary extract in the absence of EGF and incubated at 37° C. for 72 hr. […] Potency values (IC50) values were determined as the concentration (nM) of compound that elicited a half-maximal response.

rat osteocalcin promoter = experiment: OCN (osteocalcin) promoter assay in RG-15 (ROS 17/2.8) cells; type: cell-based
Method: 4. The OCN Promoter test is described in the “Assay” section of the Description, infra.
3. The OCN (Osteocalcin) Promoter Assay
The OCN Promoter Assay is an indicator and marker for osteoporosis. Desired assay results are EC50 less than or equal to 325 nM. Preferred assay results are less than 50 nM.
(3) Materials and Method for The OCN Promoter Assay:
The activation of osteocalcin by VDR ligands was evaluated in a rat osteoblast-like cell line RG-15 (ROS 17/2.8) stably expressing rat osteocalcin promoter fused with luciferase reporter gene. The stable cell lines were established as reported before (Activation of Osteocalcin Transcription involves interaction of protein kinase A- and Protein kinase C-dependent pathways. Boguslawski, G., Hale, L. V., Yu, X.-P., Miles, R. R., Onyia, J. E., Santerre R. F., Chandrasekhar, S. J Biol. Chem. 275, 999-1006, 2000). Confluent RG-15 cells maintained in DMEM/F-12 medium (3:1) containing 5% FBS, 300 µg/ml G418 and at 37° C. under 5% CO2/95% air atmosphere were trypsinized (0.25% trypsin) and plated into white opaque 96-well cell culture plates (25000 cells/well). After 24 hr, cells (in DMEM/F-12 medium+2% FBS) were treated with various concentrations of compounds, dissolved in DMSO. The final DMSO concentration remained at 0.01% (v/v). After 48 hr treatment, the medium was removed, cells were lysed with 50 µl of lysis buffer (From Luciferase reporter assay system, Roche Diagnostics, Indianapolis, Ind.) and assayed for luciferase activity using the Luciferase Reporter Gene Assay kit from Boehringer Mannheim as per manufacturer's specifications.

pEC50 (rat osteocalcin promoter; Rattus norvegicus) | Compound | pIC50 (KERtr cells) | pEC50 (rat osteocalcin promoter)
– | CCC(CC)(c1ccc(OCC(O)C(C)(C)C)c(C)c1)c1cc(C)c(CS(C)(=O)=O)s1 (single isomer, unassigned) [Ex. 11B] | 6.67 | –
– | CCC(CC)(c1ccc(OCS(C)(=O)=O)c(C)c1)c1cc(C)c(CCC(O)C(C)(C)C)s1 (single isomer, unassigned) [Ex. 15A] | 7.12 | –
– | CCC(CC)(c1ccc(OCC(O)C(C)(C)C)c(C)c1)c1cc(C)c(C(=O)NCCS(C)(=O)=O)s1 (single isomer, unassigned) [Ex. 39, 5-[1-ethyl-1-[4-(2-hydroxy-3,3-dimethyl-butoxy)-3-methylphenyl]propyl]-3-methylthiophene-2-carboxylic acid (2-methylsulfonyl-ethyl) amide] | 6.44 | 6.52
– | CCC(CC)(c1ccc(OCC(O)C(C)(C)C)c(C)c1)c1cc(C)c(C(=O)NCC(=O)O)s1 (single isomer, unassigned) [Ex. 48] | 7.15 | –
– | CCC(CC)(c1ccc(OCC(O)C(C)(C)C)c(C)c1)c1cc(C)c(C(=O)N[C@H](C)C(=O)OC)s1 (single isomer, unassigned) [Ex. 66, D-2-[(5-{1-Ethyl-1-[4-(2-hydroxy-3,3-dimethyl-butoxy)-3-methyl-phenyl]-propyl}-3-methyl-thiophene-2-carbonyl)-amino]-propionic acid methyl ester] | 6.56 | 7.55
6.83 | CCC(CC)(c1ccc(OCC(O)C(C)(C)C)c(C)c1)c1cc(C)c(C(=O)N(C)C)s1 (centres unmarked) [Ex. 4] | 6.91 | –
– | CCC(CC)(c1ccc(OCC(O)C(C)(C)C)c(C)c1)c1cc(C)c(C(=O)OC)s1 (centres unmarked) [Ex. 6A] | 6.36 | –
7.29 | CCC(CC)(c1ccc(OCC(O)C(C)(C)C)c(C)c1)c1cc(C)c(CS(C)(=O)=O)s1 (centres unmarked) [Ex. 10] | 7.60 | –
7.51 | CCC(CC)(c1ccc(OC[S+](C)[O-])c(C)c1)c1cc(C)c(CC[C@@H](O)C(C)(C)C)s1 (some centres unmarked) [Ex. 16] | 6.59 | –
7.95 | CCC(CC)(c1ccc(OS(C)(=O)=O)c(C)c1)c1cc(C)c(CC[C@@H](O)C(C)(C)C)s1 [Ex. 18] | 7.61 | –
8.06 | CCC(CC)(c1ccc(CCC(=O)O)c(C)c1)c1cc(C)c(CCC(O)C(C)(C)C)s1 (centres unmarked) [Ex. 29] | 8.34 | –
– | CCC(CC)(c1ccc(OCC(O)C(C)(C)C)c(C)c1)c1cc(C)c(S(=O)(=O)NCCC(=O)O)s1 (centres unmarked) [Ex. 142] | 6.52 | –
6.65 | CCC(CC)(c1ccc(OCC(=O)C(C)(C)C)c(C)c1)c1cc(C)c(S(=O)(=O)N(C)CCC(=O)O)s1 [Ex. 145] | 6.15 | –
7.74 | CCc1cc(C(CC)(CC)c2ccc(S(=O)(=O)NCC(=O)O)s2)ccc1OCC(O)C(C)(C)C (centres unmarked) [Ex. 155] | 6.10 | –
– | CCC(CC)(c1ccc(OCC(O)C(C)(C)C)c(C)c1)c1cc(C)c(-c2n[nH]c(=S)o2)s1 (centres unmarked) [Ex. 173] | 6.32 | –
6.76 | CCC(CC)(c1ccc(CCC(O)C(C)(C)C)c(C)c1)c1cc(C)c(C(=O)OC)s1 (centres unmarked) [Ex. 174, 5-{1-Ethyl-1-[4-(3-hydroxy-4,4-dimethyl-pentyl)-3-methyl-phenyl]-propyl}-3-methyl-thiophene-2-carboxylic acid methyl ester] | – | –
6.90 | CCC(CC)(c1ccc(CCC(O)C(C)(C)C)c(C)c1)c1cc(C)c(C(=O)O)s1 (centres unmarked) [Ex. 175, 5-{1-Ethyl-1-[4-(3-hydroxy-4,4-dimethyl-pentyl)-3-methyl-phenyl]-propyl}-3-methyl-thiophene-2-carboxylic acid] | – | –
7.34 | CCC(CC)(c1ccc(CCC(O)C(C)(C)C)c(C)c1)c1cc(C)c(C(=O)NCC(=O)O)s1 (centres unmarked) [Ex. 177, [(5-{1-Ethyl-1-[4-(3-hydroxy-4,4-dimethyl-pentyl)-3-methyl-phenyl]-propyl}-3-methyl-thiophene-2-carbonyl)-amino]-acetic acid] | 7.09 | –
6.64 | CCC(CC)(c1ccc(CCC(=O)C(C)(C)C)c(C)c1)c1cc(C)c(S(=O)(=O)NCC(=O)O)s1 [Ex. 182] | – | –

Compound | pEC50 (rat osteocalcin promoter; Rattus norvegicus) | pIC50 (KERtr cells) | pEC50 (rat osteocalcin promoter)
CCC(CC)(c1ccc(OCC(O)C(C)(C)C)c(C)c1)c1ccc(C(=O)O)s1 (single isomer, unassigned) [Ex. 89, 3′-[4-(2-hydroxy-3,3-dimethylbutoxy)-3-methylphenyl]-3′-[5-carboxy-thiophen-2-yl]pentane] | 6.50 | 6.98 | –
CCC(CC)(c1ccc(OCC(O)C(C)(C)C)c(C)c1)c1cc(C)c(COCC(=O)O)s1 (centres unmarked) [Ex. 124, 2-(5-{1-ethyl-1-[4-(2-hydroxy-3,3-dimethyl-butoxy)-3-methyl-phenyl]-propyl}-3-methyl-thiophen-2-yl-methoxy)acetic acid] | 7.00 | 6.66 | –
CCC(CC)(c1ccc(OCC(O)C(C)(C)C)c(C)c1)c1cc(C)c(S(=O)(=O)NC(C)=O)s1 (centres unmarked) [Ex. 158, 5-{1-Ethyl-1-[4-(2-hydroxy-3,3-dimethyl-butoxy)-3-methyl-phenyl]-propyl}-3-methyl-thiophene-2-sulfonic acid acetyl-amide] | 7.07 | 6.30 | –
CCC(=O)NS(=O)(=O)c1sc(C(CC)(CC)c2ccc(OCC(O)C(C)(C)C)c(C)c2)cc1C (centres unmarked) [Ex. 159, 5-{1-Ethyl-1-[4-(2-hydroxy-3,3-dimethyl-butoxy)-3-methyl-phenyl]-propyl}-3-methyl-thiophene-2-sulfonic acid propionyl-amide] | 7.05 | 6.63 | –
CCC(CC)(c1ccc(OCC(=O)C(C)(C)C)c(C)c1)c1cc(C)c(S(=O)(=O)NC(C)=O)s1 [Ex. 160, 5-{1-[4-(3,3-Dimethyl-2-oxo-butoxy)-3-methyl-phenyl]-1-ethyl-propyl}-3-methyl-thiophene-2-sulfonic acid acetyl-amide] | 7.39 | 5.96 | –
CCC(CC)(c1ccc(OCC(=O)C(C)(C)C)c(C)c1)c1cc(C)c(S(=O)(=O)NC(=O)C(C)C)s1 [Ex. 164, 5-{1-[4-(3,3-Dimethyl-2-oxo-butoxy)-3-methyl-phenyl]-1-ethyl-propyl}-3-methyl-thiophene-2-sulfonic acid isobutyryl-amide] | 6.82 | – | –
CCC(CC)(c1ccc(OCC(=O)C(C)(C)C)c(C)c1)c1cc(C)c(S(=O)(=O)NC(=O)C2CC2)s1 [Ex. 165, 5-{1-[4-(3,3-Dimethyl-2-oxo-butoxy)-3-methyl-phenyl]-1-ethyl-propyl}-3-methyl-thiophene-2-sulfonic acid cyclopropanecarbonyl-amide] | 6.86 | – | –
CCC(CC)(c1ccc(OCC(=O)C(C)(C)C)c(C)c1)c1cc(C)c(S(=O)(=O)NC(=O)COC)s1 [Ex. 166, 5-{1-[4-(3,3-Dimethyl-2-oxo-butoxy)-3-methyl-phenyl]-1-ethyl-propyl}-3-methyl-thiophene-2-sulfonic acid (2-methoxy-acetyl)-amide] | 6.82 | – | –
CCC(CC)(c1ccc(OCC(O)C(C)(C)C)c(C)c1)c1cc(C)c(-c2n[nH]c(=S)o2)s1 (centres unmarked) [Ex. 172, 5-(5-{1-Ethyl-1-[4-(2-hydroxy-3,3-dimethyl-butoxy)-3-methyl-phenyl]-propyl}-3-methyl-thiophen-2-yl)-3H-[1,3,4]oxadiazole-2-thione] | 7.76 | – | –
CCOC(=O)CSCc1sc(C(CC)(CC)c2ccc(OCC(=O)C(C)(C)C)c(C)c2)cc1C [Ex. 183, (5-{1-[4-(3,3-Dimethyl-2-oxo-butoxy)-3-methyl-phenyl]-1-ethyl-propyl}-3-methyl-thiophen-2-ylmethylsulfanyl)-acetic acid ethyl ester] | 7.41 | – | –
